Test systems include EKVX NSCLC; OVCAR-3 ovarian; MOLT-4 leukemia; KM12 colon; SNB-75 CNS; UACC-62 melanoma; OVCAR-4 ovarian; DU-145 prostate; SK-OV-3 ovarian; SW-620 colon.
Common to all, as to assay: inhibition of tumour cell growth, NCI panel, 48 h

Structures are written as SMILES. Values joined by “and” are separate entries in the source; they are usually repeats but may differ in a detail not shown here. Equal values may be shown once.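 A five-concentration, 48-hour dose response in 96-well plates underlies each endpoint, interpolated linearly between surrounding concentrations. GI50 is the concentration that inhibits growth by half. Definition used: TGI = concentration required for complete inhibition of growth.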

In the case of `COc1ccc(CN2C(=O)/C(=C\C(=O)c3ccc(OCCN4CCCCC4)cc3)c3ccccc32)cc1`, the GI50 in the assay on EKVX NSCLC is 4.94 µM; with OVCAR-3 ovarian, 1.93 µM; with MOLT-4 leukemia, 2.26 µM; in the assay with KM12 colon it was 12 µM; in the assay on SNB-75 CNS, 12.8 µM; with UACC-62 melanoma, 1.67 µM. Also, the GI50 in the assay with OVCAR-4 ovarian is 2.62 µM; with DU-145 prostate it was 3.35 µM; in the assay on SK-OV-3 ovarian, 18.4 µM; in the assay on SW-620 colon, 1.74 µM. Also, the TGI with EKVX NSCLC stood at 19.6 µM; with OVCAR-3 ovarian, 3.94 µM; with MOLT-4 leukemia, 6.26 µM; with KM12 colon, 28.6 µM; with SNB-75 CNS, 27.6 µM; in the assay with UACC-62 melanoma it was 3.13 µM. Besides, the TGI in the assay with OVCAR-4 ovarian is 8.13 µM; in the assay on DU-145 prostate it was 11.5 µM; with SK-OV-3 ovarian it was 34.3 µM; in the assay with SW-620 colon, 3.51 µM.
`C=C1CC[C@@H]2[C@](C)(COC(C)=O)[C@H](OC(C)=O)CC[C@@]2(C)[C@@H]1CC(Sc1ccccc1)C1=CCOC1=O` (stereo not given in full): the GI50 with EKVX NSCLC is 2.43 µM; in the assay with OVCAR-3 ovarian, 1.14 µM; in the assay on MOLT-4 leukemia it was 1.48 µM; in the assay with KM12 colon, 1.4 µM; in the assay on SNB-75 CNS, 1.3 µM; in the assay on UACC-62 melanoma, 1.3 µM. Moreover, the GI50 in the assay with OVCAR-4 ovarian is 1.36 µM; with DU-145 prostate, 1.41 µM; in the assay with SK-OV-3 ovarian, 4.44 µM; with SW-620 colon, 0.716 µM. Further, the TGI amounted to 10.4 µM in the assay with EKVX NSCLC; 2.37 µM in the assay on OVCAR-3 ovarian; 6.15 µM with MOLT-4 leukemia; 2.96 µM in the assay on KM12 colon; 2.9 µM in the assay on SNB-75 CNS; 3.24 µM in the assay with UACC-62 melanoma. In addition, the TGI in the assay on OVCAR-4 ovarian was determined as 3.11 µM; in the assay with DU-145 prostate, 2.74 µM; with SK-OV-3 ovarian it was 16.8 µM; in the assay with SW-620 colon, 3.64 µM.
For the compound `O=C(Cc1ccc(/C=C/C(=O)c2ncc[nH]2)cc1)Nc1cc(F)c(F)c(F)c1`, the GI50 in the assay on EKVX NSCLC is 8.45 µM; with OVCAR-3 ovarian it was 2.81 µM; with MOLT-4 leukemia, 4.81 µM; in the assay on KM12 colon, 2.81 µM; with SNB-75 CNS, 1.98 µM; with UACC-62 melanoma it was 3.71 µM. The GI50 in the assay on OVCAR-4 ovarian is 4.81 µM; in the assay on DU-145 prostate, 3.37 µM; in the assay with SK-OV-3 ovarian it was 7.01 µM; with SW-620 colon it was 1.88 µM. The TGI in the assay on EKVX NSCLC was over 25 µM; with OVCAR-3 ovarian it was 6.14 µM; in the assay with MOLT-4 leukemia it was 16.1 µM; in the assay on KM12 colon, 6.85 µM; with SNB-75 CNS it was over 25 µM; with UACC-62 melanoma, 8.91 µM. Further, the TGI in the assay on OVCAR-4 ovarian is over 25 µM; with DU-145 prostate it was 7.08 µM; in the assay on SK-OV-3 ovarian, over 25 µM; in the assay with SW-620 colon, 6.79 µM.
As to `CCN(CC)CCCC(CNc1ccnc2cc(Cl)ccc12)c1ccc(Cl)cc1` (stereo not given), the GI50 was 2.11 µM and 1.67 µM with EKVX NSCLC; 2.46 µM and 2.38 µM in the assay on OVCAR-3 ovarian; 1.56 µM and 1.24 µM with MOLT-4 leukemia; 1.77 µM and 1.54 µM with KM12 colon; 1.58 µM and 1.4 µM with SNB-75 CNS; 1.9 µM and 1.86 µM with UACC-62 melanoma. Besides, the GI50 is 1.07 µM and 1.04 µM in the assay with OVCAR-4 ovarian; 3.84 µM and 4.19 µM with DU-145 prostate; 2 µM and 1.82 µM in the assay with SK-OV-3 ovarian; 1.43 µM and 1.55 µM in the assay on SW-620 colon. Besides, the TGI in the assay with EKVX NSCLC was 6.03 µM and 4.11 µM; in the assay on OVCAR-3 ovarian it was 7.73 µM and 9.83 µM; in the assay with MOLT-4 leukemia, 4.91 µM and 4.22 µM; in the assay on KM12 colon, 3.52 µM and 4.33 µM; with SNB-75 CNS it was 3.18 µM and 2.85 µM; in the assay with UACC-62 melanoma it was 3.52 µM and 3.5 µM. For the same compound, the TGI was 4.28 µM and 3.36 µM in the assay on OVCAR-4 ovarian; 15.5 µM and 19 µM in the assay with DU-145 prostate; 4.04 µM and 3.81 µM with SK-OV-3 ovarian; 3.02 µM and 3.35 µM in the assay on SW-620 colon.
Consider `CCN(CC)c1ccc2c(c1)OC(N)=C(C#N)C2c1cc(OC)c2c(c1)OCO2` (stereo not given), for which the GI50 with EKVX NSCLC is 0.0767 µM; in the assay on OVCAR-3 ovarian it was 0.0168 µM; in the assay on MOLT-4 leukemia, 0.0497 µM; in the assay with KM12 colon it was 0.0325 µM; in the assay with SNB-75 CNS, 0.02 µM; in the assay on UACC-62 melanoma, under 0.0184 µM. Besides, the GI50 is 0.0754 µM in the assay on OVCAR-4 ovarian, 0.0358 µM in the assay with DU-145 prostate, 0.035 µM with SK-OV-3 ovarian and 0.0354 µM in the assay with SW-620 colon. Further, the TGI was over 100 µM in the assay on EKVX NSCLC; 0.0466 µM with OVCAR-3 ovarian; 3.55 µM in the assay with MOLT-4 leukemia; 0.603 µM with KM12 colon; 42.5 µM with SNB-75 CNS; 13.5 µM in the assay with UACC-62 melanoma. Besides, the TGI in the assay on OVCAR-4 ovarian was over 48.6 µM; with DU-145 prostate, 0.428 µM; in the assay with SK-OV-3 ovarian, 12.7 µM; in the assay on SW-620 colon, over 48.9 µM.
Regarding `O=C(CNc1ccc(Cl)cc1)Nc1ccc(-c2nc3ccccc3s2)cc1`, the GI50 is 8.02 µM with EKVX NSCLC; 2.04 µM in the assay with OVCAR-3 ovarian; 0.811 µM in the assay on MOLT-4 leukemia; 5.39 µM with KM12 colon; 3.39 µM with SNB-75 CNS; 2.63 µM with UACC-62 melanoma. Besides, the GI50 is 2.78 µM in the assay on OVCAR-4 ovarian, 3.49 µM in the assay with DU-145 prostate, 12 µM with SK-OV-3 ovarian and 2.15 µM in the assay with SW-620 colon. Further, the TGI in the assay on EKVX NSCLC is 24.5 µM; in the assay on OVCAR-3 ovarian, 3.99 µM; in the assay on MOLT-4 leukemia it was over 26.6 µM; in the assay on KM12 colon, 16.5 µM; in the assay on SNB-75 CNS, 14.8 µM; in the assay on UACC-62 melanoma, 8.3 µM. The TGI with OVCAR-4 ovarian was 19.4 µM; in the assay on DU-145 prostate it was 11.7 µM; in the assay on SK-OV-3 ovarian it was over 78.6 µM; in the assay on SW-620 colon, 4.73 µM.
Turning to `CC(=O)c1cccc(NC(=O)C(=O)NNc2n[nH]c(=S)n2N)c1`, the TGI amounted to 29 µM in the assay on EKVX NSCLC; 15.9 µM in the assay on OVCAR-3 ovarian; 18.3 µM in the assay on MOLT-4 leukemia; 30.9 µM in the assay with KM12 colon; 25.2 µM in the assay on SNB-75 CNS; 3.72 µM in the assay with UACC-62 melanoma. Further, the TGI stood at 23.4 µM in the assay with OVCAR-4 ovarian, 19.2 µM in the assay on DU-145 prostate, 43.1 µM in the assay on SK-OV-3 ovarian and 22.5 µM in the assay on SW-620 colon.
As for `COc1ccc2c(c1)CCCC(Br)C2=O` (stereo not given), the TGI with EKVX NSCLC is 37.2 µM; in the assay with OVCAR-3 ovarian, 37.7 µM; with MOLT-4 leukemia, over 48.5 µM; in the assay on KM12 colon, 12.8 µM; in the assay on SNB-75 CNS, 27.9 µM; in the assay with UACC-62 melanoma, 8.88 µM. For the same compound, the TGI in the assay with OVCAR-4 ovarian was 20.5 µM; in the assay with DU-145 prostate, 44.9 µM; in the assay with SK-OV-3 ovarian, 14.3 µM; with SW-620 colon, over 33.3 µM.
Regarding `CCOC(=O)CCCn1c(SC)nc2[nH]cc(-c3ccccc3)c2c1=O`, the GI50 in the assay on EKVX NSCLC is 24.8 µM; in the assay on OVCAR-3 ovarian, 16.8 µM; with MOLT-4 leukemia, 0.489 µM; with KM12 colon, 16.8 µM; in the assay with SNB-75 CNS it was 15.1 µM; in the assay on UACC-62 melanoma it was 11.2 µM. Also, the GI50 in the assay with OVCAR-4 ovarian was 31.4 µM; in the assay on DU-145 prostate, 17.1 µM; with SK-OV-3 ovarian, 25.6 µM; in the assay with SW-620 colon, 20.7 µM. For the same compound, the TGI in the assay on EKVX NSCLC stood at 85.8 µM; with OVCAR-3 ovarian it was 42.6 µM; in the assay with MOLT-4 leukemia, 10.1 µM; in the assay with KM12 colon it was 38.2 µM; in the assay with SNB-75 CNS, 40.1 µM; with UACC-62 melanoma it was 25.1 µM. Also, the TGI is 80.8 µM with OVCAR-4 ovarian, over 100 µM in the assay with DU-145 prostate, 93.6 µM in the assay on SK-OV-3 ovarian and 78.6 µM in the assay with SW-620 colon.
For `CC(C)CCN1c2nc(Nc3cc(F)c(O)c(F)c3)ncc2N(C)C(=O)C1C` (stereo not given), the GI50 was 9.26 µM in the assay on EKVX NSCLC; 3.65 µM in the assay on OVCAR-3 ovarian; 4.1 µM in the assay on MOLT-4 leukemia; 2.92 µM in the assay with KM12 colon; 13.4 µM in the assay with SNB-75 CNS; 4.75 µM in the assay on UACC-62 melanoma. In addition, the GI50 in the assay with OVCAR-4 ovarian is 18.6 µM; in the assay with DU-145 prostate it was 6.41 µM; in the assay on SK-OV-3 ovarian, 2.89 µM; in the assay with SW-620 colon, 4.09 µM. The TGI in the assay on EKVX NSCLC is over 100 µM; in the assay with OVCAR-3 ovarian it was 24.1 µM; in the assay with MOLT-4 leukemia, 19.9 µM; with KM12 colon, 14.7 µM; with SNB-75 CNS it was 44.3 µM; with UACC-62 melanoma, 23.8 µM. The TGI with OVCAR-4 ovarian was over 100 µM; in the assay on DU-145 prostate, 77.5 µM; with SK-OV-3 ovarian, over 100 µM; in the assay on SW-620 colon it was 27.4 µM.
Turning to `CCCCCCCCCCCCCC1=NC(C)(C)CN1C(C)C`, the GI50 with EKVX NSCLC was 1.49 µM; with OVCAR-3 ovarian, 1.48 µM; in the assay on MOLT-4 leukemia it was 1.56 µM; in the assay on KM12 colon it was 1.65 µM; in the assay on SNB-75 CNS it was 1.64 µM; in the assay on UACC-62 melanoma it was 1.74 µM. The GI50 with OVCAR-4 ovarian was 1.76 µM; with DU-145 prostate, 1.7 µM; with SK-OV-3 ovarian, 1.79 µM; in the assay on SW-620 colon it was 1.58 µM. For the same compound, the TGI was found to be 3.17 µM in the assay on EKVX NSCLC; 2.8 µM in the assay on OVCAR-3 ovarian; 3.26 µM in the assay with MOLT-4 leukemia; 3.01 µM in the assay on KM12 colon; 3 µM in the assay with SNB-75 CNS; 3.2 µM in the assay on UACC-62 melanoma. In addition, the TGI in the assay with OVCAR-4 ovarian turned out to be 3.48 µM; in the assay on DU-145 prostate it was 3.06 µM; in the assay with SK-OV-3 ovarian it was 3.17 µM; in the assay on SW-620 colon, 2.92 µM.

The values above are taken from PubChem BioAssay (NCI).
